Measurements taken from the NIST ThermoML archive (doi:10.1016/j.jct.2016.11.009).

Details: Gas, Buoyancy - hydrostatic balance with magnetic suspension - one sinker

N#N [nitrogen]
Details	mass density [kg/m3]
304.03 K, 17990 kPa	190.64
304.1 K, 16877 kPa	180.004
304.11 K, 6796 kPa	75.316
304.11 K, 12948 kPa	140.851
304.12 K, 5782 kPa	64.151
304.13 K, 8812 kPa	97.213
304.14 K, 4379 kPa	48.633
304.15 K, 2926 kPa	32.502
304.15 K, 7820 kPa	86.489
304.15 K, 11901 kPa	129.994
304.15 K, 15984 kPa	171.278
304.16 K, 10861 kPa	119.075
304.16 K, 14927 kPa	160.84
304.17 K, 13944 kPa	150.964
304.23 K, 9837 kPa	108.209
304.55 K, 2607 kPa	28.885
304.66 K, 3534 kPa	39.15
304.66 K, 7983 kPa	88.017
304.69 K, 7136 kPa	78.822
304.73 K, 16296 kPa	173.901
304.75 K, 8937 kPa	98.306
304.75 K, 12245 kPa	133.207
304.77 K, 4983 kPa	55.145
304.77 K, 14270 kPa	153.864
304.78 K, 10988 kPa	120.097
304.8 K, 3016 kPa	33.394
304.82 K, 5885 kPa	65.065
304.83 K, 8012 kPa	88.26
304.83 K, 10043 kPa	110.076
304.88 K, 3013 kPa	33.353
304.88 K, 18305 kPa	192.939
304.89 K, 6933 kPa	76.521
305.04 K, 4986 kPa	55.132
305.17 K, 4987 kPa	55.12
